The results in this text go back to the NIST ThermoML archive (doi:10.1021/acs.jced.5b01053).

± gives the expanded uncertainty stated by the source.

For data set [1] the following is noted: 298.15 K; 101.33 kPa; Crystal; Vibrating tube method.
Data set [2] in a line: Solid-liquid equilibrium temperature. As to conditions: 101 kPa; Crystal; DTA.
A short description of data set [3]: Molar enthalpy of transition or fusion. The note with it: Crystal; DSC.

Usually mass density stands for mass per unit of volume. `CS(=O)(=O)c1ccc(C=O)cc1` [4-(methylsulfonyl)benzaldehyde]: the mass density in data set [1] is on record as 1289 ± 3 kg/m3. Besides, the Solid-liquid equilibrium temperature in data set [2] came to 431.49 ± 1 K. Also, in data set [3], the “Molar enthalpy of transition or fusion” value was 6.26 ± 0.229 kcal/mol.
